From patent publication US20070105160A1, “Detection of intracellular enzyme complex” (DiscoveRx, priority 2005, published 2007)

Key:
[1] = molecular target: glucocorticoid receptor (GR); assay: PathHunter GR translocation EFC assay, antagonist mode (pre-incubation before agonist); format: cell-based, human; settings: pre-incubated 1 hour
Method: (§1) • 5 mM Potassium phosphate (dibasic) • 5 mM Potassium phosphate (monobasic) • 150 mM Sodium Chloride • 10 mM Magnesium Acetate • 2% CHAPS • pH6.9 Reagent Buffer/Substrate Formulation/Mixture Used in the Assay: • 1 part Galacton Star (ABI) • 5 parts Emerald II enhancer (ABI) • 19 parts Lysis buffer with 2% CHAPS (DX) Assay Protocol (96 Well Assay Format) • 1. 10,000 CHO-EA+GR-PL cells/well in a volume of 100 μL are plated in a Costar 96 well white, clear bottom plate and allowed to adhere overnight at 37° C./5% CO2 in an incubator. • 2. […] The reaction is incubated for 3-4 hours in a 37° C./5% CO2 incubator. • 4. To the reaction, equal aliquots from 50 mL of reagent solution are added to the wells. • 5. The plate is read on a standard multiwell plate reader that can measure luminescent activity. (e.g., Wallac Victor II or Packard Lumicount) after 30 and 60 minutes.
The glucocorticoid receptor (GR) was subcloned by using a pCMV-GR-PL construct generated by Panomics, Inc. as pcr template, adding Bgl 2 and Kpn I sites at the 5′ and 3′ ends respectively. The GR sequence was based on and confirmed to match the RefSeq NM_000176 for the human GR. […] This plasmid was transiently transfected into a stable CHO-K1+EA-NLS/NRS expressing cell line. Clonal selection for cells expressing both EA-NLS/NRS and GR-PL was performed as described above except the cells were subjected to double antibiotic selection (hygromycin and Geneticin/G418).
(§2) 10,000 cells/well were plated in a white Costar® 96 well plate and allowed to adhere overnight. […] To the reaction, 50 μL of cell lysis/substrate solution was added and the plate was read in a Wallace Victor 2 plate reader after 60 minutes. […] Antagonist studies were also performed using titrating amounts of geldenamycin (1-1000 nM) pre-incubated with the PathHunter cells for 1 hour prior to being treated with an agonist (at the EC80 concentration) for 3 hours and the EFC activity was measured.

[2] = molecular target: T1, glucocorticoid receptor (GR) (Homo sapiens, UniProt P04150); assay: PathHunter GR translocation EFC assay, agonist mode, chemiluminescent detection; format: cell-based; settings: CHO-EA+GR-PL (PathHunter) cells, agonist 3 hours, plate read after 60 minutes, FIG. 1
T1 construct: expressed in transfected cells; host or cells: CHO-K1 stably expressing EA-NLS/NRS (CHO-EA+GR-PL, 'PathHunter' cells)
T1 sequence (P04150 1-777): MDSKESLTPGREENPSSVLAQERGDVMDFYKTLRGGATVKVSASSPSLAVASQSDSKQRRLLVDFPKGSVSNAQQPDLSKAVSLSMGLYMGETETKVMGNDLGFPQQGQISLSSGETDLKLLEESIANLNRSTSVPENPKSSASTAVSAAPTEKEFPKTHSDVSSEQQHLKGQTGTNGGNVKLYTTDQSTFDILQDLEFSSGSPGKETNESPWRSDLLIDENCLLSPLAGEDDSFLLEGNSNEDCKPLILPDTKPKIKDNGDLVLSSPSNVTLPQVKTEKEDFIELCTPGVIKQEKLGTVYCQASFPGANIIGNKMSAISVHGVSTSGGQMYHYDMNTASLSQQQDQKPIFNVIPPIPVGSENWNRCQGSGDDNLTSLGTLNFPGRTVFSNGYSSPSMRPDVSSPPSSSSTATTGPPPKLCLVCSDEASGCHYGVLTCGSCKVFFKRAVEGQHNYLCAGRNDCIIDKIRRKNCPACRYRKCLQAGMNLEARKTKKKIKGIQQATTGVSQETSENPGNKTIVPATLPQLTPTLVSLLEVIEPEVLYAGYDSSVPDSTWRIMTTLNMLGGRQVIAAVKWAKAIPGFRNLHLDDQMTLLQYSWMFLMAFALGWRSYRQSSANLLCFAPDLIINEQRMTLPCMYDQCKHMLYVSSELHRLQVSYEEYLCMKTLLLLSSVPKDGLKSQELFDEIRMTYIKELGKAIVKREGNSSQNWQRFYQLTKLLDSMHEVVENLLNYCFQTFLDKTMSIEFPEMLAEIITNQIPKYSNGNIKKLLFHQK
Method: as §1, with “minutes. […]” for “minutes.”
as §2

SMILES	IC50 ([1]; then 1 μM hydrocortisone as agonist for 3 hours)	IC50 ([1]; then 1 μM prednisolone as agonist for 3 hours)	IC50 ([1]; then dexamethasone treatment (EC80 concentration) for 3 hours, FIG. 2)	EC50 [2]
COC1=C2C[C@@H](C)C[C@H](OC)[C@H](O)[C@@H](C)/C=C(\C)[C@H](OC(N)=O)[C@@H](OC)/C=C\C=C(/C)C(=O)NC(=CC1=O)C2=O [geldenamycin]	23.8 nM	22.3 nM	11.6 nM	–
C[C@]12C=CC(=O)C=C1CC[C@H]1[C@@H]3C[C@@H](O)[C@](O)(C(=O)CO)[C@@]3(C)C[C@H](O)[C@@]12F [triamcinolone]	–	–	–	62.9 nM
